≈ marks a conversion by molar mass, not a printed value. Like-named read-outs stand apart in the source and are kept apart here.
Assays:
Type in all cases: cell-based
[1] = system: methicillin-resistant Staphylococcus aureus (MRSA) isolates; assay: MIC measured by agar dilution method (CLSI); conditions: Staphylococcus aureus, MRSA, agar dilution
Experimental: (§1) Spontaneous mutation and minimal inhibit concentration (MIC) tested by agar dilution method, the above compounds are respectively prepared into a stock solution (100X) with a concentration 100 times the highest final concentration in corresponding solvents and used on the same day. Before use, I is further diluted with DMSO; and oxacillin, rifampicin and levofloxacin are further diluted with water.
(§2) Bacterial isolates: Staphylococcus aureus isolates are retrieved from the −80° C. storage room of Micromyx Culture Collection, thawed, plated onto Tryptic Soy Agar+5% sheep blood (Remel; Lenexa, Kans.), and then incubated aerobically at 35° C. overnight. S. aureus ATCC 29213 (MRSA; MMX 0100) was included during testing only for the purpose of quality control. Test Media: The isolates were tested in both the agar dilution MIC assay and the spontaneous mutation assay using Mueller-Hinton Agar (MHA; BD/BBL; Lot No. 6229829 & 4216798). Inocula of each isolate were suspended in cation-adjusted Mueller-Hinton Broth (CAMHB) (BD/BBL; Lot Nos. 5257869 & 6258541). Sodium chloride (Sigma-Aldrich; Lot No. SLBL0434V) was added to CAMHB at a final concentration of 2% when testing oxacillin. Dilutions of bacterial cell suspensions for the purpose of performing colony counts were also made in CAMHB.
(§3) MIC measured by agar dilution method: according to the recommendation from the Clinical and Laboratory Standards Institute (CLSI), the MIC value is measured by the agar dilution method. […] Each test agent was combined with molten MHA agar (50-55° C.) at a ratio of 0.2 mL of 100× test agent to 19.8 mL agar in a sterile tube, mixed gently, and then poured into a sterile petri plate (BD Falcon). Plates were allowed to solidify at room temperature. A 0.5 McFarland standard bacterial suspension was prepared, diluted 1:10 in CAMHB, and transferred to the wells of a stainless steel replicator block before stamping onto plates containing drug, resulting in 10^4 CFU/spot. After allowing the inoculum to dry on the surface of the agar, the plates were inverted, incubated aerobically at 35° C. for 20-24 hr, and inspected for growth.

[2] = system: Staphylococcus aureus MMX 3265, 3270, 3278, and 6312; conditions: for Cell counts (mean): 1 used if no colonies
Experimental: Each test agent stock solution was prepared at 100× the final desired test concentration for the spontaneous mutation frequency assay agar plates.
The drug/agar mixture was dispensed into sterile 150×15 mm plates (BD Falcon) to a volume of 50 mL in each plate. The target inoculum for each spontaneous mutation plate was at least 10^9 CFU. Plates were allowed to solidify at room temperature.
The inocula for the spontaneous mutation frequency assay were prepared by using sterile cotton swabs to harvest colonies from freshly grown isolates and preparing a dense cell suspension (approximately 1.70 on the turbidity meter) in 6 mL of CAMHB. The viable count of this suspension was determined by plating serial ten-fold dilutions onto MHA and taking the average of duplicate counts. For the spontaneous mutation assay, 0.25 mL of inoculum was spread onto the surface of duplicate 150×15 mm plates for each drug concentration tested, allowed to dry, and then the plates were inverted and incubated at 35° C. for 48 hr prior to counting viable colonies. The spontaneous mutation frequency was calculated using the following equation:
Spontaneous mutation frequency=average number of colonies on selected plates/total number of cells incubated onto each plate
If there were no colonies on the antibiotic selection plates, the spontaneous mutation frequency was reported as less than or equal to the mutation frequency that would have resulted from the presence of one colony (e.g. 1/total number of cells inoculated onto the plate).

[3] = system: Staphylococcus aureus ATCC 29213; assay: MIC measured by agar dilution method, quality control strain; conditions: strain 100, MSSA QC strain
Experimental: as §1, §2, §3
In parallel experiments, a standard bacterium suspension with a […] turbidity of 0.5 is prepared as a standard inoculum for agar dilution analysis (10^4 CFU/point). […] In this step, the broths and drugs used in the spontaneous mutation analysis are used to confirm that the concentration of the drug stock solution can inhibit the growth of the standard inoculum. The quality of the levofloxacin stock solution is controlled by a standard inoculum and levofloxacin of 8-0.008 μg/mL, and separate agar dilution analysis is performed. […]

[4] = system: Staphylococcus aureus ATCC 29213; assay: MIC measured by fluid broth microdilution method (quality control); conditions: ATCC29213
[5] = isolate 3265 LEV^R RIF^S, drug 0.5 μg/mL in plates (combination 0.5 each), inoculation 5.40E+09 CFU
[6] = isolate 3265 LEV^R RIF^S, drug 2 μg/mL in plates (combination 2 each), inoculation 5.40E+09 CFU
[7] = isolate 3265 LEV^R RIF^S, drug 8 μg/mL in plates (combination 8 each), inoculation 5.40E+09 CFU
[8] = isolate 3270 LEV^R RIF^S, drug 0.5 μg/mL in plates (combination 0.5 each), inoculation 5.30E+09 CFU
[9] = isolate 3270 LEV^R RIF^S, drug 2 μg/mL in plates (combination 2 each), inoculation 5.30E+09 CFU
[10] = isolate 3270 LEV^R RIF^S, drug 8 μg/mL in plates (combination 8 each), inoculation 5.30E+09 CFU
[11] = isolate 3278 LEV^S RIF^S, drug 0.5 μg/mL in plates (combination 0.5 each), inoculation 3.80E+09 CFU
[12] = isolate 3278 LEV^S RIF^S, drug 2 μg/mL in plates (combination 2 each), inoculation 3.80E+09 CFU
[13] = isolate 3278 LEV^S RIF^S, drug 8 μg/mL in plates (combination 8 each), inoculation 3.80E+09 CFU
[14] = isolate 6312 LEV^R RIF^S, drug 0.5 μg/mL in plates (combination 0.5 each), inoculation 3.90E+09 CFU
[15] = isolate 6312 LEV^R RIF^S, drug 2 μg/mL in plates (combination 2 each), inoculation 3.90E+09 CFU
[16] = isolate 6312 LEV^R RIF^S, drug 8 μg/mL in plates (combination 8 each), inoculation 3.90E+09 CFU

CO[C@H]1/C=C/O[C@@]2(C)Oc3c(C)c(O)c4c(O)c(c(/C=N/N5CCN(C)CC5)c(O)c4c3C2=O)NC(=O)/C(C)=C\C=C\[C@H](C)[C@H](O)[C@@H](C)[C@@H](O)[C@@H](C)[C@H](OC(C)=O)[C@@H]1C [Rifampicin]
MIC ([1]; strain 3085, LEV^S RIF^S): 0.015 mg/L (≈ 0.0182 µM) | MIC ([1]; strain 3090, LEV^R RIF^S): 0.008 mg/L (≈ 0.00972 µM) | MIC ([1]; strain 3094, LEV^R RIF^S): 0.015 mg/L (≈ 0.0182 µM) | MIC ([1]; strain 3098, LEV^S RIF^S): 0.015 mg/L (≈ 0.0182 µM) | MIC ([1]; strain 3265, LEV^R RIF^S): 0.008 mg/L (≈ 0.00972 µM) | MIC ([1]; strain 3266, LEVR RIFS): 0.008 mg/L (≈ 0.00972 µM) | MIC ([1]; strain 3270, LEV^R RIF^S): 0.015 mg/L (≈ 0.0182 µM) | MIC ([1]; strain 3271, LEV^R RIF^S): 0.015 mg/L (≈ 0.0182 µM) | MIC ([1]; strain 3277, LEV^S RIF^S): 0.015 mg/L (≈ 0.0182 µM) | MIC ([1]; strain 3278, LEV^S RIF^S): 0.015 mg/L (≈ 0.0182 µM) | MIC ([1]; strain 6312, LEV^R RIF^S): 0.015 mg/L (≈ 0.0182 µM) | MIC ([1]; strain 6313, LEV^R RIF^S): 0.015 mg/L (≈ 0.0182 µM) | MIC ([1]; strain 6315, LEV^R RIF^S): 0.015 mg/L (≈ 0.0182 µM) | MIC ([1]; strain 6498, LEV^R RIF^S): 0.015 mg/L (≈ 0.0182 µM) | MIC ([1]; strain 6501, LEV^R RIF^S): 0.015 mg/L (≈ 0.0182 µM) | MIC ([1]; strain 6505, LEV^R RIF^S): 0.015 mg/L (≈ 0.0182 µM) | MIC ([1]; strain 7771, LEV^R RIF^S): 0.008 mg/L (≈ 0.00972 µM) | MIC ([1]; strain 7772, LEV^S RIF^S): 0.015 mg/L (≈ 0.0182 µM) | MIC ([1]; strain 7773, LEV^R RIF^S): 0.015 mg/L (≈ 0.0182 µM) | MIC ([1]; strain 7774, LEV^R RIF^S): 0.015 mg/L (≈ 0.0182 µM) | MIC ([1]; strain 7775, LEV^R): 0.015 mg/L (≈ 0.0182 µM) | Cell counts (mean) ([2]; isolate 3265, drug 0.5 μg/mL): 55 | Cell counts (mean) ([2]; isolate 3265, drug 2 μg/mL): 29 | Cell counts (mean) ([2]; isolate 3265, drug 8 μg/mL): 36 | Cell counts plate A [2, 5]: 52 | Cell counts plate B [2, 5]: 57 | Mutation frequency [2, 5]: 1.01E−08 | Cell counts plate A [2, 6]: 27 | Cell counts plate B [2, 6]: 30 | Mutation frequency [2, 6]: 5.28E−09 | Cell counts plate A [2, 7]: 43 | Cell counts plate B [2, 7]: 29 | Mutation frequency [2, 7]: 6.67E−09 | Cell counts (mean) ([2]; isolate 3270, drug 0.5 μg/mL): 83 | Cell counts (mean) ([2]; isolate 3270, drug 2 μg/mL): 49 | Cell counts (mean) ([2]; isolate 3270, drug 8 μg/mL): 43 | Cell counts plate A [2, 8]: 93 | Cell counts plate B [2, 8]: 73 | Mutation frequency [2, 8]: 1.57E−08 | Cell counts plate A [2, 9]: 44 | Cell counts plate B [2, 9]: 53 | Mutation frequency [2, 9]: 9.15E−09 | Cell counts plate A [2, 10]: 43 | Cell counts plate B [2, 10]: 42 | Mutation frequency [2, 10]: 8.02E−09 | Cell counts (mean) ([2]; isolate 3278, drug 0.5 μg/mL): 47 | Cell counts (mean) ([2]; isolate 3278, drug 2 μg/mL): 29 | Cell counts (mean) ([2]; isolate 3278, drug 8 μg/mL): 34 | Cell counts plate A [2, 11]: 49 | Cell counts plate B [2, 11]: 44 | Mutation frequency [2, 11]: 1.22E−08 | Cell counts plate A [2, 12]: 20 | Cell counts plate B [2, 12]: 37 | Mutation frequency [2, 12]: 7.50E−09 | Cell counts plate A [2, 13]: 34 | Cell counts plate B [2, 13]: 33 | Mutation frequency [2, 13]: 8.82E−09 | Cell counts (mean) ([2]; isolate 6312, drug 0.5 μg/mL): 32 | Cell counts (mean) ([2]; isolate 6312, drug 2 μg/mL): 29 | Cell counts (mean) ([2]; isolate 6312, drug 8 μg/mL): 34 | Cell counts plate A [2, 14]: 34 | Cell counts plate B [2, 14]: 29 | Mutation frequency [2, 14]: 8.08E−09 | Cell counts plate A [2, 15]: 36 | Cell counts plate B [2, 15]: 22 | Mutation frequency [2, 15]: 7.44E−09 | Cell counts plate A [2, 16]: 38 | Cell counts plate B [2, 16]: 29 | Mutation frequency [2, 16]: 8.59E−09 | MIC [3]: 0.015 mg/L (≈ 0.0182 µM) | MIC [4]: 0.008 mg/L (≈ 0.00972 µM)

— patent US20220087990A1, “APPLICATION OF RIFAMYCIN-QUINOLIZIDONE CONJUGATE MOLECULE AND PHARMACEUTICALLY ACCEPTABLE SALT THEREOF” (priority 2019, published 2022)
